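Exposure lasted 48 hours, with cells grown in 96-well plates and compounds tested at five concentrations. TGI is the concentration that stops growth completely.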
Key:
Test in all cases: NCI anticancer screen, dose series, 48 h
[1] = test system: 786-0 renal
[2] = test system: A498 renal
[3] = test system: A549 NSCLC
[4] = test system: ACHN renal
[5] = test system: CAKI-1 renal
[6] = test system: CCRF-CEM leukemia
[7] = test system: COLO 205 colon
[8] = test system: DLD-1 colon
[9] = test system: DMS 114 small cell lung
[10] = test system: DMS 273 small cell lung
[11] = test system: EKVX NSCLC
[12] = test system: HCC-2998 colon
[13] = test system: HCT-15 colon
[14] = test system: HL-60(TB) leukemia
[15] = test system: HT29 colon
[16] = test system: IGROV1 ovarian
[17] = test system: K-562 leukemia
[18] = test system: KM12 colon
[19] = test system: KM20L2 colon
[20] = test system: LOX IMVI melanoma
[21] = test system: LXFL 529 NSCLC
[22] = test system: M14 melanoma
[23] = test system: MALME-3M melanoma
[24] = test system: MOLT-4 leukemia
[25] = test system: NCI-H23 lung
[26] = test system: NCI-H460 lung
[27] = test system: NCI-H522 lung
[28] = test system: OVCAR-4 ovarian
[29] = test system: OVCAR-5 ovarian
[30] = test system: OVCAR-8 ovarian
[31] = test system: RPMI-8226 leukemia
[32] = test system: RXF 393 renal
[33] = test system: RXF-631 renal
[34] = test system: SF-268 CNS
[35] = test system: SF-295 CNS
[36] = test system: SF-539 CNS
[37] = test system: SK-MEL-2 melanoma
[38] = test system: SK-MEL-28 melanoma
[39] = test system: SK-MEL-5 melanoma
[40] = test system: SK-OV-3 ovarian
[41] = test system: SN12C renal
[42] = test system: SNB-19 CNS
[43] = test system: SNB-75 CNS
[44] = test system: SNB-78 CNS
[45] = test system: SW-620 colon
[46] = test system: TK-10 renal
[47] = test system: U251 CNS
[48] = test system: UACC-257 melanoma
[49] = test system: UACC-62 melanoma
[50] = test system: UO-31 renal
[51] = test system: XF 498 CNS
[52] = test system: HCT-116 colon
[53] = test system: HOP-18 NSCLC
[54] = test system: HOP-62 NSCLC
[55] = test system: HOP-92 NSCLC
[56] = test system: M19-MEL melanoma
[57] = test system: NCI-H226 lung
[58] = test system: OVCAR-3 ovarian

CC1=NN(c2ccccc2)C(=O)/C1=C\c1ccc([N+](=O)[O-])cc1
TGI [1]: 85.8 µM
TGI [2]: 56.2 µM
TGI [3]: > 100 µM
TGI [4]: > 100 µM
TGI [5]: 73.6 µM
TGI [6]: 49.5 µM
TGI [7]: 33 µM
TGI [8]: > 100 µM
TGI [9]: 50 µM
TGI [10]: 62.7 µM
TGI [11]: > 100 µM
TGI [12]: 63.2 µM
TGI [13]: > 100 µM
TGI [14]: 56.2 µM
TGI [15]: 97 µM
TGI [16]: 83.3 µM
TGI [17]: 81.4 µM
TGI [18]: 64.3 µM
TGI [19]: > 100 µM
TGI [20]: 48.1 µM
TGI [21]: > 100 µM
TGI [22]: > 100 µM
TGI [23]: 69.3 µM
TGI [24]: 48.4 µM
TGI [25]: 91 µM
TGI [26]: > 100 µM
TGI [27]: 57.9 µM
TGI [28]: 42.2 µM
TGI [29]: 50.8 µM
TGI [30]: > 100 µM
TGI [31]: 57.2 µM
TGI [32]: 41.4 µM
TGI [33]: 77.4 µM
TGI [34]: > 100 µM
TGI [35]: 68.9 µM
TGI [36]: 45.2 µM
TGI [37]: 56 µM
TGI [38]: > 100 µM
TGI [39]: 54.5 µM
TGI [40]: 58.7 µM
TGI [41]: > 100 µM
TGI [42]: > 100 µM
TGI [43]: > 100 µM
TGI [44]: > 100 µM
TGI [45]: 93.2 µM
TGI [46]: > 100 µM
TGI [47]: > 100 µM
TGI [48]: > 100 µM
TGI [49]: 53.3 µM
TGI [50]: > 100 µM
TGI [51]: 44.6 µM

O=C(Cc1nc2ccccc2o1)C(=O)Nc1cccc(C(F)(F)F)c1
TGI [1]: > 100 µM
TGI [2]: > 100 µM
TGI [3]: > 100 µM
TGI [4]: > 100 µM
TGI [5]: > 100 µM
TGI [6]: > 100 µM
TGI [7]: > 100 µM
TGI [8]: > 100 µM
TGI [9]: > 100 µM
TGI [10]: > 100 µM
TGI [11]: > 100 µM
TGI [12]: > 100 µM
TGI [52]: > 100 µM
TGI [13]: > 100 µM
TGI [14]: > 100 µM
TGI [53]: > 100 µM
TGI [54]: > 100 µM
TGI [55]: > 100 µM
TGI [15]: > 100 µM
TGI [16]: > 100 µM
TGI [17]: > 100 µM
TGI [18]: > 100 µM
TGI [19]: > 100 µM
TGI [20]: > 100 µM
TGI [21]: > 100 µM
TGI [22]: > 100 µM
TGI [56]: > 100 µM
TGI [23]: > 100 µM
TGI [24]: > 100 µM
TGI [57]: > 100 µM
TGI [25]: > 100 µM
TGI [26]: > 100 µM
TGI [27]: > 100 µM
TGI [58]: > 100 µM
TGI [28]: > 100 µM
TGI [29]: > 100 µM
TGI [30]: > 100 µM
TGI [31]: > 100 µM
TGI [33]: > 100 µM
TGI [34]: > 100 µM
TGI [35]: > 100 µM
TGI [36]: > 100 µM
TGI [37]: > 100 µM
TGI [38]: > 100 µM
TGI [39]: > 100 µM
TGI [40]: > 100 µM
TGI [41]: > 100 µM
TGI [42]: > 100 µM
TGI [43]: > 100 µM
TGI [44]: > 100 µM
TGI [45]: > 100 µM
TGI [46]: > 100 µM
TGI [47]: > 100 µM
TGI [48]: > 100 µM
TGI [49]: > 100 µM
TGI [50]: > 100 µM

CC(C)(C)c1cc2nc(c1)C(C(F)(F)F)(C(F)(F)F)OB(Br)OC2(C(F)(F)F)C(F)(F)F
TGI [1]: 1.81 µM
TGI [3]: 6.77 µM
TGI [5]: 1.18 µM
TGI [6]: 0.677 µM
TGI [7]: 0.364 µM
TGI [8]: 12.8 µM
TGI [9]: 0.421 µM
TGI [10]: 0.107 µM
TGI [11]: 0.727 µM
TGI [12]: 11.4 µM
TGI [13]: 13.8 µM
TGI [54]: 3.14 µM
TGI [15]: 12.1 µM
TGI [16]: 8.83 µM
TGI [17]: 10 µM
TGI [18]: 11.3 µM
TGI [19]: 1.25 µM
TGI [20]: 3.78 µM
TGI [21]: 13.9 µM
TGI [22]: 3.38 µM
TGI [56]: 12.2 µM
TGI [23]: 4.42 µM
TGI [24]: 0.28 µM
TGI [25]: 17.2 µM
TGI [29]: 8.39 µM
TGI [30]: 0.427 µM
TGI [31]: 3.76 µM
TGI [32]: 22 µM
TGI [33]: 5.35 µM
TGI [34]: 17.8 µM
TGI [35]: 3.4 µM
TGI [36]: 7.31 µM
TGI [37]: 11.2 µM
TGI [38]: 18.6 µM
TGI [40]: 10.7 µM
TGI [41]: 7.26 µM
TGI [42]: 14.9 µM
TGI [43]: 13 µM
TGI [44]: 1.56 µM
TGI [45]: 15.8 µM
TGI [46]: 5.5 µM
TGI [47]: 1.37 µM
TGI [48]: 0.188 µM
TGI [49]: 0.983 µM
TGI [50]: 2.72 µM
TGI [51]: 6.91 µM

O=C(O)CCNS(=O)(=O)c1ccc([N+](=O)[O-])cc1
TGI [1]: > 100 µM
TGI [2]: > 100 µM
TGI [3]: > 100 µM
TGI [4]: > 100 µM
TGI [5]: > 100 µM
TGI [6]: > 100 µM
TGI [7]: > 100 µM
TGI [8]: > 100 µM
TGI [10]: > 100 µM
TGI [11]: > 100 µM
TGI [12]: > 100 µM
TGI [13]: > 100 µM
TGI [14]: > 100 µM
TGI [53]: > 100 µM
TGI [55]: > 100 µM
TGI [15]: > 100 µM
TGI [16]: > 100 µM
TGI [17]: > 100 µM
TGI [18]: > 100 µM
TGI [19]: > 100 µM
TGI [20]: > 100 µM
TGI [21]: > 100 µM
TGI [22]: > 100 µM
TGI [56]: > 100 µM
TGI [23]: > 100 µM
TGI [24]: > 100 µM
TGI [57]: > 100 µM
TGI [25]: > 100 µM
TGI [26]: > 100 µM
TGI [27]: > 100 µM
TGI [58]: > 100 µM
TGI [28]: > 100 µM
TGI [29]: > 100 µM
TGI [30]: > 100 µM
TGI [31]: > 100 µM
TGI [32]: > 100 µM
TGI [33]: > 100 µM
TGI [34]: > 100 µM
TGI [35]: > 100 µM
TGI [36]: > 100 µM
TGI [37]: > 100 µM
TGI [38]: > 100 µM
TGI [39]: > 100 µM
TGI [40]: > 100 µM
TGI [41]: > 100 µM
TGI [42]: > 100 µM
TGI [43]: > 100 µM
TGI [45]: > 100 µM
TGI [46]: > 100 µM
TGI [47]: > 100 µM
TGI [48]: > 100 µM
TGI [49]: > 100 µM
TGI [50]: > 100 µM
TGI [51]: > 100 µM

Reference: PubChem BioAssay (NCI)
